Species on record: Rattus norvegicus
Test: Open TG-GATES - Regimen: Daily Repeat
Format: toxicity, organism-based, Sprague-Dawley
Design: regimen Daily Repeat, gender Male, age 6 weeks
Details: in vivo, po, 3 mg/kg, route gavage, dose level Low; for APTT / Bas / Eos / Fbg / Hb / Ht / Lym / MCH / MCHC / MCV / Mono / Neu / PT / Plat / RBC / Ret / WBC: tissue Blood
[1] = 72 h, tissue Kidney, time 3 day
[2] = 72 h, tissue Plasma, time 3 day

Question: How did the TERMINAL_BW (72 h, time 3 day) turn out when Nc1c2c(nc3ccccc13)CCCC2 [TACRINE] was run?
Answer: 218.9 g

Question: What about the APTT (72 h, time 3 day) of the same molecule?
Answer: 21 s

Question: And the Bas (72 h, time 3 day)?
Answer: 0%

Question: And the Eos (72 h, time 3 day)?
Answer: 0.8%

Question: And the Fbg (72 h, time 3 day)?
Answer: 309.2 mg/dL

Question: And the Hb (72 h, time 3 day)?
Answer: 13.8 g/dL

Question: And the Ht (72 h, time 3 day)?
Answer: 39.3%

Question: What about the Lym (72 h, time 3 day) of the same molecule?
Answer: 80.2%

Question: What about the MCH (72 h, time 3 day) of the same molecule?
Answer: 21 pg

Question: What about the MCHC (72 h, time 3 day) of the same molecule?
Answer: 35%

Question: And the MCV (72 h, time 3 day)?
Answer: 60.1 fL

Question: And the Mono (72 h, time 3 day)?
Answer: 2.8%

Question: What about the Neu (72 h, time 3 day) of the same molecule?
Answer: 15.2%

Question: And the PT (72 h, time 3 day)?
Answer: 16.1 s

Question: What about the Plat (72 h, time 3 day) of the same molecule?
Answer: 115.7 x10_4/uL

Question: What about the RBC (72 h, time 3 day) of the same molecule?
Answer: 655.6 x10_4/ul

Question: What about the Ret (72 h, time 3 day) of the same molecule?
Answer: 5.8%

Question: And the WBC (72 h, time 3 day)?
Answer: 128.8 x10_2/uL

Question: What about the KIDNEY_L [1] of the same molecule?
Answer: 0.9 g

Question: And the KIDNEY_R [1]?
Answer: 1 g

Question: What about the KIDNEY_TOTAL [1] of the same molecule?
Answer: 1.9 g

Question: What about the LIVER (72 h, tissue Liver, time 3 day) of the same molecule?
Answer: 10 g

Question: What about the A/G [2] of the same molecule?
Answer: 1.3

Question: And the ALP [2]?
Answer: 1457.8 IU/L

Question: And the ALT [2]?
Answer: 48.6 IU/L

Question: And the AST [2]?
Answer: 78.4 IU/L

Question: And the BUN [2]?
Answer: 17.8 mg/dL

Question: What about the CRE [2] of the same molecule?
Answer: 0.2 mg/dL

Question: And the Ca [2]?
Answer: 10.8 mg/dL

Question: And the Cl [2]?
Answer: 106.8 meq/L

Question: And the DBIL [2]?
Answer: 0.004 mg/dL

Question: And the GLC [2]?
Answer: 190.2 mg/dL

Question: And the IP [2]?
Answer: 7.2 mg/dL

Question: What about the K [2] of the same molecule?
Answer: 4.2 meq/L

Question: What about the LDH [2] of the same molecule?
Answer: 313 IU/L

Question: And the Na [2]?
Answer: 142 meq/L

Question: What about the PL [2] of the same molecule?
Answer: 168 mg/dL

Question: What about the RALB [2] of the same molecule?
Answer: 3.2 g/dL

Question: And the TBIL [2]?
Answer: 0.016 mg/dL

Question: What about the TC [2] of the same molecule?
Answer: 85.6 mg/dL

Question: What about the TG [2] of the same molecule?
Answer: 111 mg/dL

Question: What about the TP [2] of the same molecule?
Answer: 5.6 g/dL

Question: What about the gamma-GTP [2] of the same molecule?
Answer: 1 IU/L

Question: What about the TERMINAL_BW ([…], time 7 day) of the same molecule?
Answer: 247.7 g

Question: What about the TERMINAL_BW ([…], time 14 day) of the same molecule?
Answer: 303.9 g

Question: What about the TERMINAL_BW ([…], time 28 day) of the same molecule?
Answer: 351.6 g

Question: And the APTT ([…], time 7 day)?
Answer: 21.5 s

Question: What about the Bas ([…], time 7 day) of the same molecule?
Answer: 0%

Question: What about the Eos ([…], time 7 day) of the same molecule?
Answer: 1%

Question: And the Fbg ([…], time 7 day)?
Answer: 301 mg/dL

Question: What about the Hb ([…], time 7 day) of the same molecule?
Answer: 13.7 g/dL

Question: And the Ht ([…], time 7 day)?
Answer: 38.9%

Question: What about the Lym ([…], time 7 day) of the same molecule?
Answer: 81.6%

Question: And the MCH ([…], time 7 day)?
Answer: 21.3 pg

Question: And the MCHC ([…], time 7 day)?
Answer: 35.3%

Question: And the MCV ([…], time 7 day)?
Answer: 60.3 fL

Question: And the Mono ([…], time 7 day)?
Answer: 2.2%

Question: What about the Neu ([…], time 7 day) of the same molecule?
Answer: 14.6%

Question: And the PT ([…], time 7 day)?
Answer: 16.1 s

Question: What about the Plat ([…], time 7 day) of the same molecule?
Answer: 112.9 x10_4/uL

Question: And the RBC ([…], time 7 day)?
Answer: 645.2 x10_4/ul

Question: And the Ret ([…], time 7 day)?
Answer: 6%

Question: What about the WBC ([…], time 7 day) of the same molecule?
Answer: 119.7 x10_2/uL

Question: What about the APTT ([…], time 14 day) of the same molecule?
Answer: 23.3 s

Question: What about the Bas ([…], time 14 day) of the same molecule?
Answer: 0%

Question: What about the Eos ([…], time 14 day) of the same molecule?
Answer: 1%

Question: And the Fbg ([…], time 14 day)?
Answer: 309.4 mg/dL

Question: And the Hb ([…], time 14 day)?
Answer: 14.5 g/dL

Question: And the Ht ([…], time 14 day)?
Answer: 41.1%

Question: What about the Lym ([…], time 14 day) of the same molecule?
Answer: 79.8%

Question: What about the MCH ([…], time 14 day) of the same molecule?
Answer: 21.1 pg

Question: What about the MCHC ([…], time 14 day) of the same molecule?
Answer: 35.4%

Question: What about the MCV ([…], time 14 day) of the same molecule?
Answer: 59.5 fL

Question: And the Mono ([…], time 14 day)?
Answer: 1.4%

Question: And the Neu ([…], time 14 day)?
Answer: 17.4%

Question: What about the PT ([…], time 14 day) of the same molecule?
Answer: 15.5 s

Question: What about the Plat ([…], time 14 day) of the same molecule?
Answer: 132.9 x10_4/uL

Question: And the RBC ([…], time 14 day)?
Answer: 690.8 x10_4/ul

Question: What about the Ret ([…], time 14 day) of the same molecule?
Answer: 4.6%

Question: What about the WBC ([…], time 14 day) of the same molecule?
Answer: 104.3 x10_2/uL

Question: What about the APTT ([…], time 28 day) of the same molecule?
Answer: 23.8 s

Question: What about the Bas ([…], time 28 day) of the same molecule?
Answer: 0%

Question: What about the Eos ([…], time 28 day) of the same molecule?
Answer: 1%

Question: And the Fbg ([…], time 28 day)?
Answer: 294.8 mg/dL

Question: And the Hb ([…], time 28 day)?
Answer: 15.6 g/dL

Question: And the Ht ([…], time 28 day)?
Answer: 42.8%
